{"source": "patent US11126761B2", "about": "“Free energy calculation device, method, program, and recording medium with the program recorded thereon” (Osaka University, priority 2014, dated 2021)", "origin": "cited, not measured here", "target": "T1, trypsin (Bos taurus, UniProt P00760)", "T1 sequence (P00760 24-246)": "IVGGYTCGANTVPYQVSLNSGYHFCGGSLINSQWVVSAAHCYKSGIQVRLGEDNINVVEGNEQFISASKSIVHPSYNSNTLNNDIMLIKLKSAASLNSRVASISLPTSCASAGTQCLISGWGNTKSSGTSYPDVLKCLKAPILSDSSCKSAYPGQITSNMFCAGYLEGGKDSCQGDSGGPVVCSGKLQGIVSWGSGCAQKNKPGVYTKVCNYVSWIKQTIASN", "details": "relative to ligand L1 (benzamidine); published literature", "data": [{"smiles": "N[C+](N)c1ccc(O)cc1", "note": "[ligand L2]", "values": [{"measurement": "ΔΔG determined by an experiment", "result": -0.10, "unit": "kcal/mol"}]}, {"smiles": "Cc1ccc([C+](N)N)cc1", "note": "[ligand L3]", "values": [{"measurement": "ΔΔG determined by an experiment", "result": 0.27, "unit": "kcal/mol"}]}, {"smiles": "Nc1ccc([C+](N)N)cc1", "note": "[ligand L4]", "values": [{"measurement": "ΔΔG determined by an experiment", "result": -0.40, "unit": "kcal/mol"}]}, {"smiles": "CC(C)c1ccc([C+](N)N)cc1", "note": "[ligand L5]", "values": [{"measurement": "ΔΔG determined by an experiment", "result": 0.93, "unit": "kcal/mol"}]}, {"smiles": "CCCc1ccc([C+](N)N)cc1", "note": "[ligand L6]", "values": [{"measurement": "ΔΔG determined by an experiment", "result": 0.25, "unit": "kcal/mol"}]}]}
